From patent US20110136897A1, “TOLL-LIKE RECEPTOR 9 AGONISTS FOR THE TREATMENT OF ANXIETY-RELATED DISORDERS AND INFLAMMATORY DISORDERS” (YISSUM RESEARCH DEVELOPMENT COMPANY OF THE HEBREW …, priority 2008, published 2011) come the findings set out here.

In assay [1] the test system is RAW264.7 cells. Nature of the assay: HSP90β mRNA RT-PCR in RAW264.7 cells. Type of assay: cell-based, mouse. As to conditions: 24 hour incubation. The procedure: Cell cultures: The mouse macrophage cell line RAW 264.7 (ATCC, MD) was cultured in Dulbecco's modified Eagle's medium (DMEM) (Biological Industries, Israel) supplemented with 10% heat-inactivated fetal bovine serum (Biological Industries, Israel), 100 μg/ml streptomycin (Sigma), 100 U/ml penicillin (Sigma) and 2 mM 1-glutamine (Biological Industries, Israel) at 37° C. in a humidified atmosphere with 5% CO2.
Real-time PCR (RT-PCR): RAW264.7 cells and spleen were used for RT-PCR. 1×10^6 RAW264.7 cells were grown in 2 ml medium in 6 wells plates until 80% confluence was obtained. Total RNA was extracted using the RNeasy kit (Qiagen, CA, USA). Spleen and brain tissues' RNA was extracted using the RNeasy Tissue Mini Kit (Qiagen, Germany). In all cases, total RNA was reverse-transcribed (200 ng) using Impromp-II reverse transcriptase (Promega, WI, USA) according to manufacturer's instructions. RT-PCR was performed using Power SYBR®Green PCR Master Mix (Applied Biosystems, UK) in a 7900 HT Sequence Detection System (Applied Biosystems, CA). Quantification was assessed at the logarithmic phase of the PCR reaction. The PCR annealing temperature was 60° C. for all primer pairs.

Another assay concerns FVB/N mice. Description: Predator (cat) odor stress paradigm, elevated plus maze (EPM) and acoustic startle response (ASR) one week post-exposure. It is filed as in vivo, mouse.
Assay [2] deals with RAW264.7 cells. Nature of the assay: Nitric oxide (NO) production, Griess reaction. It is filed as cell-based, mouse. Conditions: 24 hours. The procedure: The mouse macrophage cell line RAW 264.7 (ATCC, Bethesda, Md.) was cultured in Dulbecco's modified Eagle's medium (DMEM) (Biological Industries) supplemented with 10% heat-inactivated fetal bovine serum (Biological Industries, Israel), 100 μg/ml streptomycin, 100 U/ml penicillin (Sigma) and 2 mM 1-glutamine (Biological Industries) at 37° C. in a humidified atmosphere with 5% CO2.
Determination of nitric oxide (NO) production: Nitrite concentration in the medium of cultured cells was measured as an indicator of NO production according to the Griess reaction. 1×10^5 mouse RAW264.7 cells were grown in 0.5 ml medium in 48-wells plate until 80% confluence was obtained. […] (1% sulfanilamide, 0.1% naphthylethylenediamine dihydrochloride, 5% H3PO4). Absorbance was read at 540 nm after 10 min using SPECTRAFluor Plus spectrophotometer (TECAN, UK).
To further characterize the TLR9 activating features of mEN101, mEN101 was applied to RAW264.7 cells (n=4 repeats) for 24 hours and the subsequent production of inflammatory markers was quantified. […] Addition of chloroquine (CQ), a weak base that perturbs endosomal pH and thus disturbs endosomal maturation, as well as the specific TLR9 inhibiting oligonucleotides ODN2088 and ODN TTAGGG (17), all blocked the 10 μM mEN101-driven increases in NO (p<0.015) (FIG. 2A). Thus, both gain and loss of function tests validated the nature of mEN101 as an endosomally active TLR9 activator, albeit a weak one.

Assay [3] concerns RAW264.7 cells. Description: RT-PCR of inflammatory genes in RAW264.7 cells (Table 2). Type of assay: cell-based, mouse. As to the method:
Real-time PCR (RT-PCR): Brains were dissected and tissues stored frozen at −70° C. until use. Hippocampal RNA was extracted using the RNeasy Tissue Mini Kit (Qiagen, Germany). Total RNA was reverse-transcribed (200 ng) using Impromp-II reverse transcriptase (Promega, Madison, Wis.) as instructed. RT-PCR was performed using Power SYBR®Green PCR Master Mix (Applied Biosystems, UK) in a 7900 HT Sequence Detection System (Applied Biosystems, Foster City, Calif.). Quantification was assessed at the logarithmic phase of the PCR reaction. The PCR annealing temperature was 60° C. for all primer pairs. GAPDH was used as a house-keeping gene.
Shown are fold differences in RT-PCR products of RAW264.7 cells incubated with the noted doses of mEN101 or ODN1826. Note that ODN1826 affects IL1α, -1β, -6, -10, -12 and ICAM-1 gene expression at concentrations as low as 10 nM, whereas considerably higher doses of mEN101 are needed to attain similar effects. Nevertheless, mEN101 affects inflammatory gene expression even at 10 nM. 1 μg/ml LPS was used as positive control. (n=3, p<0.05 Mann-Whitney U-test compared to untreated controls, for all the data shown).

“Also recorded” adds a separate entry of the source.

On to “5′-TCCATGACGTTCCTGACGTT-3′ [ODN1826, reference compound]”, for which the “HSP90β mRNA levels” value in the assay on RAW264.7 cells [1] was “significantly increased HSP90β mRNA levels”. Moreover, the “stress-induced anxiety scores (EPM score, startle response, habituation to startle)” value with FVB/N mice (0.5 μg/kg i.p. daily for 4 days, tested day 7, compared to stressed mice) was “diminished stress-induced anxiety scores; also recorded: lower EPM scores”. The “anxiety index (AI)” value in the assay on FVB/N mice (low dose (0.5 μg/kg), compared to saline injected stressed mice) is “decreased it”. Also, in the assay with RAW264.7 cells [2], the “concentration reaching saturation levels of NO production” value is 100 nM and the “lowest concentration inducing massive NO production” value is 10 nM. In addition, in the assay with RAW264.7 cells [3] (10 nM), the “ICAM-1 RT-PCR product” value is reported as −3.57 log2 from NT, the “IL1a RT-PCR product” value is given as 4.18 log2 from NT, the “IL1b RT-PCR product” value is listed as 4.40 log2 from NT and the “IL6 RT-PCR product” value came to 3.57 log2 from NT. In the assay with RAW264.7 cells [3] (10 nM), the “IL10 RT-PCR product” value was found to be 3.74 log2 from NT and the “IL12 RT-PCR product” value is recorded as 3.57 log2 from NT. Besides, in the assay on RAW264.7 cells [3] (100 nM), the “ICAM-1 RT-PCR product” value is −3.14 log2 from NT, the “IL1a RT-PCR product” value was found to be 5.33 log2 from NT, the “IL1b RT-PCR product” value is 5.63 log2 from NT and the “IL6 RT-PCR product” value came out at 3.71 log2 from NT. In the assay on RAW264.7 cells [3] (100 nM), the “IL10 RT-PCR product” value is on record as 4.28 log2 from NT and the “IL12 RT-PCR product” value is recorded as 4.28 log2 from NT.
